According to US12070477B2, “Lactobacillus sp. strain having ability to inhibit growth of vaginal pathogenic microorganisms” (KoBioLabs, Inc., priority 2015, dated 2024):

Tested on: Gardnerella vaginalis
Assay: Gardnerella vaginalis-infected mouse vaginitis model, microbiome analysis after vaginal administration
Assay type: in vivo, female mice (BALB/c mice)
Experimental: The hormone control and estrous cycle were induced by intraperitoneally injecting 0.5 mg of beta-esteradiol 3-benzonate to female mice (BALB/c mice). After three days, they were directly infected with Gardnerella vaginalis in the vagina at a concentration of 1×10^7 CFU per mouse to establish a vaginitis animal model. Thereafter, four kinds of Lactobacillus isolates corresponding to 10^8 to 10^9 CFU per mouse were vaginally administered (7 mice per group). On day 2, the total bacterial DNA was extracted from the vaginal samples washed with 0.1 mL of PBS (Phosphate Buffered Saline) and microbiome community analysis was performed to measure the relative abundance of Gardnerella vaginalis and other vaginal microbiota. […] The analyzed sequences were subjected to microbiome analysis including taxon profile, α-diversity and β-diversity showing the difference in community structure between groups through Qiime pipeline, and the change in the amount of Gardnerella vaginalis pathogens upon the administration of Lactobacillus isolates was evaluated by calculating relative abundances (/% GV treatment group).

Cc1ncc([N+](=O)[O-])n1CCO [MTZ, metronidazole]
community structure of the vaginal microflora (Unweighted UniFrac distance) (compared to Gardnerella vaginalis-infected control group, after 2 days of administration): no change in the community structure | Relative abundance (/% GV group) of Gardnerella vaginalis (vaginal administration after infection, day 2, 16S microbiome analysis, GV group = 100): 74.9 /% GV group
